Measurements taken from paper PMC7125560 (Bioorganic & Medicinal Chemistry, 2007).

Key:
[1] = system: SARS-CoV; conditions: read-out: EC50 (SARS-CoV); cited from earlier work
[2] = system: HCV subgenomic replicon RNA; assay: real-time RT-PCR quantification of replicon RNA; format: cell-based, hepatitis C virus (HCV); conditions: two-day incubation

Row | SMILES | EC50 [1] [µM] | replicon RNA amount ([2]; 12.5 μM) | replicon RNA amount ([2]; 25 μM) [%]
1 | OC[C@H]1C[C@@H](n2cnc3c(Cl)ncnc32)[C@@H]1CO [Compound 6] | > 300 |  | 
2 | O=C(OC[C@H]1C[C@@H](n2cnc3c(Cl)ncnc32)[C@@H]1CO)c1ccccc1 [Compound 5] | 14.5 |  | 
3 | O=C(OC[C@H]1O[C@@H](n2cnc3c(Cl)ncnc32)C[C@@H]1O)c1ccccc1 [Compound 10, 9-(5-O-benzoyl-β-D-2-deoxyribofuranosyl)-6-chloropurine] |  | approximately 45% | ~6
